Source: the METLIN SMRT retention time set (Domingo-Almenara et al. 2019)

Assay: gradient 5% acetonitrile 3 min, to 50% in 2 min, to 85% in 15 min, held 3 min, 100 µL/min
Settings: column: Zorbax Extend-C18 2.1 x 50 mm; eluents: water / acetonitrile, 0.1% formic acid
Procedure, shortened: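 Pure standards were analyzed in mixtures of ~100 molecules using HPLC coupled to a quadrupole time-of-flight mass spectrometer, in both positive and negative ionization mode. Separation used a Zorbax Extend-C18 column (2.1 × 50 mm, 1.8 μm) at 100 μL/min, with water and acetonitrile each containing 0.1% formic acid. Dead and dwell volumes were 40 μL and 900 μL, and data were collected over 3 months. Retention time was read from computationally picked adduct peaks, each inspected manually.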

| Structure (SMILES) | RP-LC retention time [s] |
| --- | --- |
| Cc1cccc(N(C)C(=O)CCS(=O)(=O)c2ccc3c(c2)CC(C)N3C(=O)C2CC2)c1 (stereo not given) | 807 |
| CCOc1ccccc1C(=O)Nc1c(-c2ccc(OC)cc2)nc2cc(C)ccn12 | 732 |
| O=C(O)C1=CCCN(CCON=C(c2ccccc2)c2ccccc2)C1 | 766 |
| CNC(=O)NC1CCN(c2nc3cccnc3n(Cc3ccc(C)cc3)c2=O)CC1 | 860 |
| Cc1oc(C2CCN(S(=O)(=O)c3ccc(F)cc3)CC2)nc1C(=O)N1CCCC1 | 890 |
| Cc1cc2nc(C(=O)Nc3ccc(C#N)cc3)cc(C)n2n1 | 890 |
| COc1ccc(OCc2noc(CNC(=O)Nc3ccccc3F)n2)cc1 | 804 |
| CC(=O)c1cn(CC(=O)NC(C)c2ccc3c(c2)OCCCO3)c2ccccc12 (stereo not given) | 794 |
| COc1ccc(C(=O)N2CCCC(c3nnc(-c4ccccc4)o3)C2)cc1 (stereo not given) | 804 |
| COc1ccc(-c2ccnc3nc(Cc4ccc(F)cc4)nn23)cc1OC | 851 |
| COc1ncccc1CNC(=O)c1nn(C)c2ccccc12 | 798 |
| Cc1ccc(C)c(NC(=O)C2CCN(S(=O)(=O)c3ccc4c(c3)NC(=O)C(C)O4)CC2)c1 (stereo not given) | 824 |
| O=C(COc1ccccc1F)Nc1nnc(C2CCCCC2)o1 | 766 |
| O=C1/C(=C/c2cc(Br)cc3c2OCOC3)Oc2cc(OC(=O)C3CC3)ccc21 | 1200 |
| NC(=O)C1(c2cccc(F)c2)CC1 | 694 |
| O=C1CC(c2noc(-c3cccc(OC(F)(F)F)c3)n2)CN1c1ccc(F)c(Cl)c1 (stereo not given) | 1210 |
| CCCn1cc(CCNC(=O)Nc2c(C)cccc2C)c2cccnc21 | 736 |
| CCc1ccccc1NC(=O)Cn1ncc2c(c1=O)N(CC1CC1)C(=O)CS2 | 757 |
| O=C(CN1C(=O)NC2(CCCCC2)C1=O)Nc1ccc(Cl)cc1 | 825 |
| O=C(c1ccc2c(c1)OCO2)N1CCCC2(C1)NC(=O)N(Cc1ccccc1)C2=O (stereo not given) | 762 |
| O=C(CN1C(=O)C2CCCCN2c2ccc(C(=O)N3CCCCC3)cc21)NC1CCCCC1 (stereo not given) | 889 |
| CNc1nc(Nc2ccccc2Cl)nc2ccccc12 | 683 |
| CSc1ccc(CNC(=O)c2cn3cc(C)ccc3n2)cc1 | 708 |

| Structure (SMILES) | RP-LC retention time [s] |
| --- | --- |
| CCCCN1C(=O)C(C)(C(=O)Nc2ccc(C)cc2C)Oc2cccnc21 (stereo not given) | 1090 |
| Cc1cc(OCC(O)CN2CCN(C)CC2)ccc1Cl (stereo not given) | 558 |
| O=C(Cc1cccs1)NC1CCc2nnc(C3CC3)n2CC1 (stereo not given) | 598 |
| Cc1ccc(NC(=O)Cn2c(=O)n(-c3ccc(F)cc3)c3ncccc32)c(C)c1 | 875 |
| CCOC(=O)c1cnc2nc(C)ccc2c1Nc1ccccc1 | 673 |
| CCOC(=O)C1=C(CN2CCN(c3ccccn3)CC2)NC(=O)NC1c1ccc(Cl)cc1 (stereo not given) | 643 |
| c1cncc(-c2nc(-c3ccc(OC4CNC4)cc3)no2)c1 | 605 |
| Cc1noc(C)c1S(=O)(=O)NCC1CCN(C(=O)Nc2ccc(F)cc2)CC1 | 742 |
| Cc1c(-c2ccccc2)n(O)[n+]([O-])c1-c1ccccc1 | 1020 |
| CCOC(=O)c1[nH]c(C)c(CCC(=O)N2CCC(C(=O)NCCCN3CCOCC3)CC2)c1C | 580 |
| CCC(C)OC(=O)C1=C(C)NC(=O)NC1c1ccccc1F (stereo not given) | 800 |
| O=C(NCCc1nnc2ccc(SCc3ccccn3)nn12)c1ccccc1 | 575 |
| O=C(CC1CCOC2(CCN(Cc3ccsc3)CC2)C1)N1CCOCC1 (stereo not given) | 570 |
| CC(C)CN1CCN(C(=O)c2cc3c(s2)CCN(C(=O)c2ccc(Cl)cc2)C3)CC1 | 664 |
| NC(=O)C1CCN(C(=O)Cn2c(=O)nc(-c3ccccc3)c3cc(Cl)ccc32)CC1 | 639 |
| COc1ccc(-n2ncc3c(=O)n(Cc4nc(-c5ccc(C)cc5)no4)cnc32)cc1 | 1030 |
| COc1ccc(NC(=O)N2CCCC2c2nc(-c3ccccc3OC)no2)cc1Cl (stereo not given) | 892 |
| O=C(CN1CCc2[nH]c3c(Cl)cccc3c(=O)c2C1)NCc1ccccc1 | 598 |
| COc1cccc(Cn2c(=O)c3ccnn3c3ccc(C(=O)O)cc32)c1 | 785 |
| Cc1cc(C)cc(N2CCC(NC(=O)Cc3ccsc3)C2=O)c1 (stereo not given) | 637 |
| CCC1CCCCN1C(=O)Cc1c(C)nc2nc(-c3ccc(C(C)(C)C)cc3)nn2c1C (stereo not given) | 1160 |
| Cc1nc(CCNC(=O)NC2CCCCC2)no1 | 649 |
| Cc1cccc(-c2nnc(-c3cccc(S(=O)(=O)N4CCCCCC4)c3)o2)c1 | 1190 |

| Structure (SMILES) | RP-LC retention time [s] |
| --- | --- |
| CCCOC(=O)c1ccc(Oc2c(C)oc3cc(OCC#N)ccc3c2=O)cc1 | 958 |
| O=C1CC(NS(=O)(=O)c2ccc(Br)s2)CN1 (stereo not given) | 630 |
| CCC(C)CNCC(=O)N1CCc2sccc2C1COc1cccc(C)c1 (stereo not given) | 916 |
| Cc1ncc(-c2nc(-c3ccccc3)cs2)c(=O)n1CC(=O)N1CCCC1 | 827 |
| COc1cccc(OCC(=O)Nc2ccc3c(c2)N(C(=O)c2ccco2)CCC3)c1 | 877 |
| Cc1ccc2ncn3c(=O)n(CC(=O)Nc4ccc5c(c4)OCO5)nc3c2c1 | 673 |
| Cc1nc(-c2ccc3c(c2)CCN3C(=O)c2cccc(F)c2)cs1 | 992 |
| CCOc1cc(C)c(C(C)C)cc1S(=O)(=O)NCc1ccccn1 | 766 |
| COc1cc(C)c(C)cc1S(=O)(=O)Nc1ccc2c(c1)N(S(C)(=O)=O)CCC2 | 844 |
| Cc1ccc(Oc2nccnc2N2CCC(C(=O)NCCCN3CCOCC3)CC2)cc1 | 648 |
| Cc1cccc(-c2nc3ccccn3c2NC(=O)Nc2ccccc2)c1 | 665 |
| CCc1ccc(Nc2nc(C(=O)NCCC(C)C)nc3ccccc23)cc1 | 964 |
| O=C(Nc1cc(Cl)ccc1F)C1CC(=O)N(c2ccc3c(c2)CCN3C(=O)C2CC2)C1 (stereo not given) | 835 |
| CCCc1ccc(S(=O)(=O)N2CCC3(CC2)CCC(O)(CN2CCCC2)CC3)cc1 | 735 |
| COc1ccc(C(=O)CC(SCCO)c2ccc(Cl)cc2)cc1 (stereo not given) | 866 |
| O=C(c1ccc(F)cc1)N1CCN(c2nnc3ccccn23)CC1 | 613 |
| CCOC(=O)c1noc2ncnc(Nc3ccc(F)cc3F)c12 | 799 |
| CCOC(=O)c1c(C)oc2ncnc(N3CCC(c4ccccc4)C3)c12 (stereo not given) | 1100 |
| Cc1oc(-c2ccc(OC(C)C)cc2)nc1CSc1nc2ncccc2o1 | 1100 |
| Cc1ccccc1NC(=O)Cn1nc2nc(N3CCCC(C)C3)ccn2c1=O (stereo not given) | 798 |
| Cc1nnc2ccc(N3CCCC3)nn12 | 726 |
| O=C(Cn1nc2ccc(-c3ccc(Cl)cc3)nn2c1=O)N1CCN(c2ccc(F)cc2)CC1 | 876 |
| COc1ccc(S(=O)(=O)N2CCCC(C(=O)Nc3cccc(Br)c3)C2)cc1Cl (stereo not given) | 1110 |

| Structure (SMILES) | RP-LC retention time [s] |
| --- | --- |
| COC(=O)c1ccc(C2CC(=O)Nc3cc(OC)cc(OC)c32)cc1 (stereo not given) | 784 |
| CCN(C(=O)c1cccc(F)c1)c1nc(-c2ccccc2)cs1 | 1230 |
| N#Cc1ccc(-c2csc(NC(=O)c3sc4ccccc4c3Cl)n2)cc1 | 1240 |
| Cc1ccc(CN2CCN(CC(=O)Nc3ccncc3)C(=O)C2=O)cc1 | 588 |
| CCc1nnc2ccc(NC(C)C)nn12 | 718 |
| O=C(Nc1nc2c(s1)CN(Cc1ccccc1)CC2)C1CCCN1S(=O)(=O)c1cccs1 (stereo not given) | 654 |
| Cc1ccc(NC(=O)Cn2c(=O)n(-c3ccc(F)cc3)c(=O)c3c2cc(C)n3C)cc1 | 800 |
| O=C(Nc1ccccc1)c1cccc(N2CC(C(=O)NC3CCCCCC3)CC2=O)c1 (stereo not given) | 862 |
| N#Cc1ccccc1-c1cc(-c2ccccn2)cn(-c2ccccc2)c1=O | 941 |
| O=C(N[C@H]1C[C@@H]2C[C@H]1CN2C(=O)c1ccc(Cl)s1)c1cccnc1 | 659 |
| O=C(c1ccc(F)cc1F)N1CCC2(CC1)N=C(c1ccc(Cl)cc1)NO2 | 900 |
| CCN(CC)C(=O)c1cc(NS(=O)(=O)c2ccc(C(C)(C)C)cc2)cnc1N1CCNCC1 | 680 |
| CC1(C)CC(=O)c2cn(-c3ccccc3)c(=O)c(C(=O)Nc3ccc4c(c3)OCCO4)c2C1 | 976 |
| CC1CCCCN1S(=O)(=O)c1ccc2nc(N3CCN(c4ccc(F)cc4)CC3)ccc2c1 (stereo not given) | 1100 |
| CC(C)n1c(=O)sc2cc(S(=O)(=O)N3CCC(C(=O)NCCc4ccccc4)CC3)ccc21 | 985 |
| CN1C(=O)c2ccccc2C(C(=O)Nc2ccc(F)cc2F)C1c1cccs1 (stereo not given) | 884 |
| COc1ccc2[nH]cc(CCNC(=O)C(C)C3CCN(S(=O)(=O)c4cccs4)CC3)c2c1 (stereo not given) | 827 |
| CCOc1ccccc1-c1noc(-c2nc(C)no2)n1 | 986 |
| CN(C)C(=O)c1ccc2c(c1)nc(CN(C)C(=O)Nc1ccc(Br)cc1)n2C | 628 |
| COc1ccccc1C(=O)Nc1nc(-c2ccc3c(c2)NC(=O)C(C)O3)cs1 (stereo not given) | 924 |
| C[C@H]1CN(S(=O)(=O)c2ccc(F)cc2)C[C@@H]1c1nc(-c2ccccc2)no1 | 1120 |
